PMC7008598 (Science signaling, 2019)

What was measured:
[1] = tested on: basal NF-κB activation in TNFR1 KO HAP1 cells; test: Basal NF-κB activation in TNFR1 KO HAP1 cells; format: cell-based, human
[2] = target: T1, TNFR1 ECD dimer (Homo sapiens, UniProt P19438); test: Native gel characterization of soluble TNFR1 ECD dimer; format: biochemical; conditions: compounds 200 μM
T1 sequence (P19438 30-211 limits assumed): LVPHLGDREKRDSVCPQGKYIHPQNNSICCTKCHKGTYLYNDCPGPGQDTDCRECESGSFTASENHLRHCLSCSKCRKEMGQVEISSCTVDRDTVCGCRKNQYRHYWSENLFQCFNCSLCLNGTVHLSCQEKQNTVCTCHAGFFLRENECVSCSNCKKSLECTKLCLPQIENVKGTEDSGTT

[3] = tested on: TRADD-induced NF-κB activation; test: TRADD-induced NF-κB activation in HEK293 cells; format: cell-based, human; conditions: HEK293, TRADD overexpression, 0.1 to 200 μM
[4] = target: T2, human TNFR1 ECD (Homo sapiens, UniProt P19438); test: SPR binding assay on immobilized TNFR1 ECD
T2 sequence (P19438 30-211 limits assumed): T1 sequence (P19438 30-211 limits assumed)

[5] = target: T3, TNFR1 PLAD dimer (Homo sapiens, UniProt P19438); test: Native gel characterization of soluble TNFR1 PLAD dimer; conditions: compounds 200 μM
T3 sequence (P19438 30-82): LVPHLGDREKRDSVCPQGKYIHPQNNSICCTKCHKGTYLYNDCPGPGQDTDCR

[6] = tested on: TNFR1-stimulated NF-κB activation; test: LTα-induced NF-κB activation luciferase assay in HEK293 cells; format: cell-based, human
[7] = tested on: TNFR1-stimulated NF-κB activation; conditions: read-out: absolute IC50, inhibition of ligand-induced NF-κB activation; cited from earlier work
[8] = target: T4, recombinant human TNFR1 extracellular domain (human, UniProt P19438 30-211); test: SPR
T4 sequence (looked up): T1 sequence (P19438 30-211 limits assumed)

[9] = target: T5, soluble FLAG-tagged lymphotoxin-α (LTα), P01374; test: native gel or EMSA; conditions: remark: other sources report otherwise
T5 chain: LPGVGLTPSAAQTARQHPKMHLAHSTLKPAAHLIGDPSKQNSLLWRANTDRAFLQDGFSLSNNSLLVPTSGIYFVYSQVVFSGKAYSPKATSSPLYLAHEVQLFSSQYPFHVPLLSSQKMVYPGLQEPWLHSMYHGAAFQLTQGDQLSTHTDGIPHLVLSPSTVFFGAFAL

[10] = target: the molecule itself; test: native gel or EMSA

**Q.** For COc1cc(C(=O)NS(=O)(=O)c2ccccc2C)ccc1Cc1cn(C)c2ccc(NC(=O)OC3CCCC3)cc12 [zafirlukast], which “effect on basal level of NF-κB activation in TNFR1 KO cells (specificity)” value [1] is on record?
**A.** Its value is “almost no effect on basal activity”.

**Q.** And the “disruption of TNFR1 ECD dimer” value [2]?
**A.** The value was “disrupted”.

**Q.** What about the “effect on TRADD-induced NF-κB activation” value [3] of the same molecule?
**A.** Its value is “little effect”.

**Q.** What about the Kd [4] of the same molecule?
**A.** The Kd was 86 µM.

**Q.** And the “noncompetitive binding of LTα and compound to TNFR1 ECD” value ([4]; SPR, LTα 50 nM, compound 200 μM)?
**A.** The value was “equal to the sum of the individual response”.

**Q.** And the “LTα binding affinity to TNFR1 ECD in the presence of compound” value ([4]; SPR, compound at saturating 200 μM)?
**A.** Its value is “essentially unchanged”.

**Q.** And the “competition with H398 for binding TNFR1” value ([4]; SPR, compounds 200 μM, H398 at 1.0 nM)?
**A.** The value was “did not compete with H398”.

**Q.** What about the “disruption of soluble PLAD dimers” value [5] of the same molecule?
**A.** The value was “disrupted”.

**Q.** What about the “extent of inhibition of NF-κB activation” value ([6]; HEK293, LTα, maximal inhibition) of the same molecule?
**A.** The value was 55%.

**Q.** What about the “IC50 for inhibition of NF-κB in the presence of H398” value ([6]; presence of H398 antibody) of the same molecule?
**A.** Its value is “unchanged”.

**Q.** What about the IC50 [7] of the same molecule?
**A.** The IC50 was 50 µM.

B1: soluble FLAG-tagged lymphotoxin-α (LTα) (ligand, UniProt P01374 35-205, looked up)
chain: T5 chain
**Q.** For B1, which Kd [8] is on record?
**A.** Its Kd is 0.037 µM.

**Q.** And the stoichiometry N [9]?
**A.** Its stoichiometry N is 3.

B2: FLAG-tagged TNFR1 PLAD (residues 30 to 82) (domain or fragment, UniProt P19438 30-82, looked up)
chain: T3 sequence (P19438 30-82)
**Q.** For B2, which “stoichiometry N” value [10] is on record?
**A.** Its value is 2.
